± gives the expanded uncertainty stated by the source.
How the values were obtained:
[1] = refractive index (Na D-line) (dimensionless); conditions: 303.15 K; 101.33 kPa; Liquid; Standard Abbe refractometry
[2] = 303.15 K; 101 kPa; Liquid
[3] = xn = mol fraction of the nth substance listed; conditions: 303.15 K, 101 kPa, Liquid
[4] = refractive index (Na D-line) (dimensionless); xn = mol fraction of the nth substance listed; conditions: 303.15 K, 101 kPa, Liquid, Standard Abbe refractometry
[5] = excess molar enthalpy (molar enthalpy of mixing); xn = mol fraction of the nth substance listed; conditions: 303 K, 101 kPa, Liquid

CCCCO [butan-1-ol]
Conditions | mass density [kg/m3] | refractive index | viscosity [mPa·s]
[1] | – | 1.39479 ± 0.00031 | –
[2] | 802.2 ± 0.3 | – | 2.195 ± 0.05

CCCCO [butan-1-ol] + CCC(C)=O
x1 = 1
Conditions | excess molar enthalpy [kcal/mol] | mass density [kg/m3] | refractive index | viscosity [mPa·s]
[3] | – | 802.2 ± 0.3 | – | 2.195 ± 0.05
[4] | – | – | 1.39479 ± 0.00031 | –
[5] | 0 ± 0.00191 | – | – | –

CCC(C)=O [butanone]
Conditions | mass density [kg/m3] | refractive index | viscosity [mPa·s]
[1] | – | 1.37383 ± 0.00031 | –
[2] | 794.5 ± 0.3 | – | 0.347 ± 0.014

CCC(C)=O [butanone] + CCCCO
Conditions | excess molar enthalpy [kcal/mol] | mass density [kg/m3] | refractive index | viscosity [mPa·s]
[3], x2 = 0 | – | 794.5 ± 0.3 | – | 0.347 ± 0.014
[3], x2 = 0.0704 | – | – | – | 0.364 ± 0.014
[3], x2 = 0.0765 | – | 795 ± 0.3 | – | –
[3], x2 = 0.1392 | – | 795.4 ± 0.3 | – | –
[3], x2 = 0.1468 | – | – | – | 0.388 ± 0.015
[3], x2 = 0.2097 | – | 795.9 ± 0.3 | – | –
[3], x2 = 0.2163 | – | – | – | 0.421 ± 0.015
[3], x2 = 0.2775 | – | 796.4 ± 0.3 | – | –
[3], x2 = 0.2818 | – | – | – | 0.455 ± 0.015
[3], x2 = 0.3429 | – | – | – | 0.479 ± 0.016
[3], x2 = 0.3488 | – | 796.9 ± 0.3 | – | –
[3], x2 = 0.4244 | – | – | – | 0.553 ± 0.017
[3], x2 = 0.442 | – | 797.6 ± 0.3 | – | –
[3], x2 = 0.4933 | – | 798 ± 0.3 | – | –
[3], x2 = 0.4988 | – | – | – | 0.615 ± 0.018
[3], x2 = 0.5008 | – | 798.1 ± 0.3 | – | –
[3], x2 = 0.5577 | – | 798.5 ± 0.3 | – | –
[3], x2 = 0.5755 | – | – | – | 0.704 ± 0.019
[3], x2 = 0.6404 | – | 799.2 ± 0.3 | – | –
[3], x2 = 0.6474 | – | 799.3 ± 0.3 | – | 0.813 ± 0.021
[3], x2 = 0.7105 | – | – | – | 0.925 ± 0.023
[3], x2 = 0.7257 | – | 799.9 ± 0.3 | – | –
[3], x2 = 0.7799 | – | – | – | 1.091 ± 0.027
[3], x2 = 0.7944 | – | 800.5 ± 0.3 | – | –
[3], x2 = 0.8562 | – | 801 ± 0.3 | – | –
[3], x2 = 0.8596 | – | – | – | 1.342 ± 0.032
[3], x2 = 0.9263 | – | – | – | 1.645 ± 0.039
[3], x2 = 0.9307 | – | 801.6 ± 0.3 | – | –
[4], x2 = 0 | – | – | 1.37383 ± 0.00031 | –
[4], x2 = 0.0765 | – | – | 1.37557 ± 0.00031 | –
[4], x2 = 0.1392 | – | – | 1.37702 ± 0.00031 | –
[4], x2 = 0.2097 | – | – | 1.37867 ± 0.00031 | –
[4], x2 = 0.2775 | – | – | 1.3802 ± 0.00031 | –
[4], x2 = 0.3488 | – | – | 1.3819 ± 0.00031 | –
[4], x2 = 0.442 | – | – | 1.38402 ± 0.00031 | –
[4], x2 = 0.4933 | – | – | 1.38514 ± 0.00031 | –
[4], x2 = 0.5008 | – | – | 1.38533 ± 0.00031 | –
[4], x2 = 0.5577 | – | – | 1.3866 ± 0.00031 | –
[4], x2 = 0.6404 | – | – | 1.38835 ± 0.00031 | –
[4], x2 = 0.6474 | – | – | 1.38848 ± 0.00031 | –
[4], x2 = 0.7257 | – | – | 1.39011 ± 0.00031 | –
[4], x2 = 0.7944 | – | – | 1.39145 ± 0.00031 | –
[4], x2 = 0.8562 | – | – | 1.3926 ± 0.00031 | –
[4], x2 = 0.9307 | – | – | 1.39387 ± 0.00031 | –
[5], x2 = 0 | 0 ± 0.00191 | – | – | –
[5], x2 = 0.134 | 0.154 ± 0.0158 | – | – | –
[5], x2 = 0.193 | 0.22 ± 0.0201 | – | – | –
[5], x2 = 0.289 | 0.281 ± 0.0239 | – | – | –
[5], x2 = 0.35 | 0.324 ± 0.0287 | – | – | –
[5], x2 = 0.425 | 0.352 ± 0.0311 | – | – | –
[5], x2 = 0.514 | 0.351 ± 0.0287 | – | – | –
[5], x2 = 0.619 | 0.337 ± 0.0287 | – | – | –
[5], x2 = 0.7 | 0.293 ± 0.0263 | – | – | –
[5], x2 = 0.769 | 0.268 ± 0.0239 | – | – | –
[5], x2 = 0.82 | 0.203 ± 0.0189 | – | – | –
[5], x2 = 0.911 | 0.141 ± 0.0148 | – | – | –

From the NIST ThermoML archive (doi:10.1016/j.jct.2007.06.009)
